Columns and labels:
[1] = biological target: T1, Protein tyrosine phosphatase 1B (PTP1B) (Homo sapiens, UniProt P18031); assay: ligand fishing with E. coli surface-displayed PTP1B, HPLC readout, with control cells; not fished by MNPs-PTP1B; format: cell-based
T1 construct: gene PTPN1
T1 sequence (P18031 1-435): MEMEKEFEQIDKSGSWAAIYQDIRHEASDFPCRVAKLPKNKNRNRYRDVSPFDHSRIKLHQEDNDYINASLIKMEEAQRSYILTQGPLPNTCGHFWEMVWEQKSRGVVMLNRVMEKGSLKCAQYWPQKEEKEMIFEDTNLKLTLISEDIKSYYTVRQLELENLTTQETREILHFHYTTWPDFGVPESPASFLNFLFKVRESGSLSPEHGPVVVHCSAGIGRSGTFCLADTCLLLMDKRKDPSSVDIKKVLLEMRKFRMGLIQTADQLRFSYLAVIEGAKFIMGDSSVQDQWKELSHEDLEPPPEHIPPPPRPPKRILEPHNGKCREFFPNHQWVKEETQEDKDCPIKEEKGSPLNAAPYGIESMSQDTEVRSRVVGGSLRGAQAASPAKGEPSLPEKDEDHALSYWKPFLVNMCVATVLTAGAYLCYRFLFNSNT

[2] = biological target: T1, Protein tyrosine phosphatase 1B (PTP1B); assay: pNPP phosphatase inhibition assay with Lineweaver-Burk kinetics (Ki […], Kis […]); also fished out by PTP1B displayed on E. coli; format: biochemical

| Structure (SMILES) | ligand fishing with E. coli surface-displayed PTP1B, HPLC readout, with control [1] | IC50 [2] |
| --- | --- | --- |
| C[C@@H]1O[C@@H](OC[C@H]2O[C@@H](Oc3c(-c4ccc(O)c(O)c4)oc4cc(O)cc(O)c4c3=O)[C@H](O)[C@@H](O)[C@@H]2O)[C@H](O)[C@H](O)[C@H]1O [II, rutin] | only EC-PTP1B extracted the positive compound rutin, indicating that EC-PTP1B was efficient for fishing the enzyme ligand | – |
| O=C(/C=C/c1ccc(O)c2c1[C@H](C(=O)O[C@H](Cc1ccc(O)c(O)c1)C(=O)O)[C@@H](c1ccc(O)c(O)c1)O2)O[C@H](Cc1ccc(O)c(O)c1)C(=O)O [salvianolic acid B] | – | 23.3 µM |
